Laboratory results from patent US7951905B2, “Synthesis of carbohydrate-templated amino acids and methods of using same” (University of Manitoba, priority 2006, dated 2011).

Columns and labels:
[1] = Trans/cis ratio (Kt/c) of prolyl amide isomers by 500 MHz NMR; type: physicochemical
Method: For each of 11-13, the ratio of trans/cis isomers was calculated by integrating as many well-resolved peaks as possible for each isomer, and taking the average of over all peaks for respective isomers (Taylor et al., 2003). The assignment of N-terminal amide geometry for both major and minor isomers of 11-16 was based on multiple GOESY experiments (Stronehouse et al., 1994).
Experiments were undertaken to determine the Kt/c effect of certain fused bicyclic sugar-proline-containing peptides. A very similar profile of Kt/c for the Ac-Gly-GlcPro-NHMe model compounds 14-16 compared to the Ac-GlcPro-NHMe model compounds 11-13 (Table 1) was observed. In CD3OD, there was an increase in the cis-content as the sugar substituent changed from benzyl 14 (<3%), to hydroxyl 15 (15%), to acetate 16 (25%).

[2] = D2O; n.s. = not soluble (footnote b)

## CNC(=O)[C@@H]1C[C@H]2O[C@H](CO)[C@H](O)[C@@H](O)[C@@H]2N1C(=O)CNC(C)=O [Compound 15, N-Acetyl-glycyl-(2S,3aR,5R,6R,7S,7aS)-6,7-dihydroxy-5-(hydroxymethyl)-octahydro-pyrano[3,2-b]pyrrole-2-carboxamide N′-methylamide]
[1]; CD3OD, 500 MHz NMR at 25° C.
  % cis isomer: 15%
  Trans/cis ratio (Kt/c): 5.7
[1]; D2O, 500 MHz NMR at 25° C.
  % cis isomer: 10%
  Trans/cis ratio (Kt/c): 9

## CNC(=O)[C@@H]1C[C@H]2O[C@H](COCc3ccccc3)[C@H](OCc3ccccc3)[C@@H](OCc3ccccc3)[C@H]2N1C(=O)CNC(C)=O [Compound 14, N-Acetyl-glycyl-(2S,3aR,5R,6R,7S,7aS)-6,7-di-O-benzyl-octahydro-5-(phenylmethyl hydroxymethyl)-pyrano[3,2-b]pyrrole-2-carboxamide N′-methylamide]
[1]; CD3OD, 500 MHz NMR at 25° C.
  % cis isomer: < 3%
  Trans/cis ratio (Kt/c): > 30
[1]; CDCl3, 500 MHz NMR at 25° C.
  % cis isomer: 5%
  Trans/cis ratio (Kt/c): 19
[2]
  solubility in solvent: n.s.^[b]

## CNC(=O)[C@@H]1C[C@H]2O[C@H](COC(C)=O)[C@H](OC(C)=O)[C@@H](OC(C)=O)[C@H]2N1C(=O)CNC(C)=O [Compound 16, N-Acetyl-glycyl-(2S,3aR,5R,6R,7S,7aS)-6,7-di-O-acetyl-5-(hydroxymethyl-O-acetyl)-octahydro-pyrano[3,2-b]pyrrole-2-carboxamide N′-methylamide]
[1]; CD3OD, 500 MHz NMR at 25° C.
  % cis isomer: 25%
  Trans/cis ratio (Kt/c): 3
[1]; CDCl3, 500 MHz NMR at 25° C.
  % cis isomer: 20%
  Trans/cis ratio (Kt/c): 4
